Test: Oxidation (discoloration) of AMP in PBS
Format: physicochemical
Details: free AMP dissolved in PBS
Description: FIG. 10 illustrates a diagram of example, non-limiting photos 1000 of a first solution of free AMP and a second solution of the second loaded polymer 602 having the exemplary structure depicted in FIG. 6 (e.g., conjugated with AMP) in accordance with one or more embodiments described herein. Repetitive description of like elements employed in other embodiments described herein is omitted for sake of brevity. As shown in the photos 1000, the right vial contains free AMP dispersed in PBS, and the left vial contains of the second loaded polymer 602 having the exemplary structure depicted in FIG. 6 (e.g., conjugated with AMP) dispersed in PBS. The various photos 1000 can show the state of the two solutions over a 360 minute time period.
Both solutions begin colorless, wherein the solutions become discolored in response to oxidation.

onset of oxidation: nearly immediately
Structure (SMILES): CN1CCc2cccc3c2[C@H]1Cc1ccc(O)c(O)c1-3 [AMP, apomorphine]

— patent US12133895B2, “Biodegradable functional polycarbonate nanoparticle carries for delivering molecular cargo” (International Business Machines Corporation, priority 2018, dated 2024)
